The source of these data is patent publication US20250319026A1, “VITAMIN COMPOSITION FOR ORAL ADMINISTRATION” (priority 2023, published 2025).

This data set in a line: Concentrations of B vitamins obtainable in solution using polysorbate 40 as a solvent. It is filed as physicochemical. The following applies: polysorbate 40 as a solvent in an amount of at least 1.8 wt. %; water. The source says: One of the major disadvantages and drawbacks of the aforementioned prior art references is the absence of both pyridoxine, thiamine, cyanocobalamin in sufficiently high concentrations to ensure the supply of these vitamins to cover the necessary needs of the body.

With cyanocobalamin, the “concentration obtainable in the solution” value was “at least 0.1 wt. %”.
